The experiment addresses GLP-1 Receptor (Homo sapiens, UniProt P43220). The experiment in a line: GLP-1R agonist cAMP stimulation assay (HEK293/GLP1R/CRE-LUC cells, cAMP dynamic 2 kit). It counts as cell-based. The following applies: HEK293/CRE-Luc cell line stably expressing the GLP-1 Receptor, 30 min incubation at 37° C.; for pEC50: read-out: GLP1R cAMP Stimulation DR: EC50; for EC50: read-out: GLP1R cAMP Stimulation DR: pEC50 (converted). How it is done:
Activation of GLP-1 receptor is known to stimulate cyclic AMP (cAMP) production in cells which indicates primary coupling to the Gas subunit of the G protein heterotrimeric complex.
To optimize functional activity directed toward Gas coupling, a HEK293/CRE-Luc cell line developed by HDB stably expressing the GLP-1 Receptor was used. […] Seal the plate and incubate at 37° C. with 5% CO2 for 30 min.
After incubation the cAMP assay signal was generated using cAMP dynamic 2 Kit (Cisbio). 5 μL cAMP-d2 working solution was added to each well, followed with 5 μL Anti-cAMP antibody-cryptate working solution added to each well using ThermoFisher Multidrop Combi. Incubate at room temperature for 1 hour protected from light.
% Activity=[…]×(mean RLU of test sample−mean RLU of vehicle control)/(mean RLU of MAX control−mean RLU of vehicle control))

pEC50: −log10 of the molar value. Where two headings read alike, the source gives them in different places.

For orientation: pEC50 means the EC50 on a negative log10 scale, so that one unit is a factor of ten.

Sequence of GLP-1 Receptor (P43220 24-463, species assumed): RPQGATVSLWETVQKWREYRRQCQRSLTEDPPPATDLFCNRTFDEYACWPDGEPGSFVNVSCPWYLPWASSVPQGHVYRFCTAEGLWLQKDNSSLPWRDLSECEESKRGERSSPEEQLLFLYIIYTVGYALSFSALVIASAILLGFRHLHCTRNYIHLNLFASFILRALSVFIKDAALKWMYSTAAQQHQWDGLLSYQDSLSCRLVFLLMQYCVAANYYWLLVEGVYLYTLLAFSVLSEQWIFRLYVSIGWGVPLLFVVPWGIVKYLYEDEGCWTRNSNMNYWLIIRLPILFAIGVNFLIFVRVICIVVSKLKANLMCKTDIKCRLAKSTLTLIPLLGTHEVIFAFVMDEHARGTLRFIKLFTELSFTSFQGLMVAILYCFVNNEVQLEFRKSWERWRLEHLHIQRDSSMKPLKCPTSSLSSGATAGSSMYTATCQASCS

As to `O=C(O)c1ccc2nc(CN3CCC(Oc4cccc(C(F)(F)c5ccc(Cl)cc5F)n4)CC3)n(C[C@@H]3CCO3)c2n1` [Compound 129a, 2-{[4-({6-[(4-chloro-2-fluorophenyl)difluoromethyl]pyridin-2-yl}oxy)piperidin-1-yl]methyl}-3-{[(2S)-oxetan-2-yl]methyl}-3H-imidazo[4,5-b]pyridine-5-carboxylic acid], the negative logarithm of the EC50 (pEC50) was 9.04 and the EC50 is 1 nM.
For `O=C(O)c1ccc2nc(CN3CCC(Oc4cccc(Cc5ccc(Cl)cc5F)n4)C3)n(C[C@@H]3CCO3)c2n1` (stereo partly drawn) [Compound 130a, 2-{[3-({6-[(4-chloro-2-fluorophenyl)methyl]pyridin-2-yl}oxy)pyrrolidin-1-yl]methyl}-3-{[(2S)-oxetan-2-yl]methyl}-3H-imidazo[4,5-b]pyridine-5-carboxylic acid], the pEC50 was 7.28.
Take `Cc1cn(Cc2ccc(Cl)cc2F)nc1OC1CCN(Cc2nc3ccc(C(=O)O)nc3n2C[C@@H]2CCO2)CC1` [Compound 133a, 2-{[4-({1-[(4-chloro-2-fluorophenyl)methyl]-4-methyl-1H-pyrazol-3-yl}oxy)piperidin-1-yl]methyl}-3-{[(2S)-oxetan-2-yl]methyl}-3H-imidazo[4,5-b]pyridine-5-carboxylic acid]: the pEC50 was 8.62.
For `CC(=O)Nc1ccc2nc(CN3CCC(Oc4cccc(Cc5ccc(Cl)cc5F)n4)CC3)n(C[C@@H]3CCO3)c2c1` [Compound 134a, N-(2-{[4-({6-[(4-chloro-2-fluorophenyl)methyl]pyridin-2-yl}oxy)piperidin-1-yl]methyl}-1-{[(2S)-oxetan-2-yl]methyl}-1H-1,3-benzodiazol-6-yl)acetamide], the negative-log EC50 (pEC50) is 7.24.
The same measure, in the same setting: to `N#Cc1ccc(Cc2cccc(OC3CCN(Cc4nc5ccc(C(=O)O)cc5n4C[C@@H]4CCO4)CC3)n2)c(F)c1` [Compound 135a, 2-{[4-({6-[(4-cyano-2-fluorophenyl)methyl]pyridin-2-yl}oxy)piperidin-1-yl]methyl}-1-{[(2S)-oxetan-2-yl]methyl}-1H-1,3-benzodiazole-6-carboxylic acid] belongs 8.74.
Consider `N#Cc1ccc(Cc2cccc(OC3CCN(Cc4nc5ccc(C(=O)O)nc5n4C[C@@H]4CCO4)CC3)n2)c(F)c1` [Compound 136a, 2-{[4-({6-[(4-cyano-2-fluorophenyl)methyl]pyridin-2-yl}oxy)piperidin-1-yl]methyl}-3-{[(2S)-oxetan-2-yl]methyl}-3H-imidazo[4,5-b]pyridine-5-carboxylic acid], for which the negative-log EC50 (pEC50) was 9.36.
Still for that read-out and setting: to `O=C(O)c1ccc2nc(CN3CCC(Oc4nc(Cc5ccc(Cl)cc5F)ccc4Cl)CC3)n(C[C@@H]3CCO3)c2n1` [Compound 137a, 2-{[4-({3-chloro-6-[(4-chloro-2-fluorophenyl)methyl]pyridin-2-yl}oxy)piperidin-1-yl]methyl}-3-{[(2S)-oxetan-2-yl]methyl}-3H-imidazo[4,5-b]pyridine-5-carboxylic acid] belongs 7.29; to `O=C(O)c1ccc2nc(CN3CCC(n4ccc5ccc(Cc6ccc(Cl)cc6F)nc54)CC3)n(C[C@@H]3CCO3)c2n1` [Compound 140a, 2-[(4-{6-[(4-chloro-2-fluorophenyl)methyl]-1H-pyrrolo[2,3-b]pyridin-1-yl}piperidin-1-yl)methyl]-3-{[(2S)-oxetan-2-yl]methyl}-3H-imidazo[4,5-b]pyridine-5-carboxylic acid], 8.92.
The same measure, in the same setting: under `O=C(O)c1ccc2nc(CN3CCC(c4cccc5cn(Cc6ccc(Cl)cc6F)nc45)CC3)n(C[C@@H]3CCO3)c2n1` [Compound 142a, (S)-2-((4-(2-(4-chloro-2-fluorobenzyl)-2H-indazol-7-yl)piperidin-1-yl)methyl)-3-(oxetan-2-ylmethyl)-3H-imidazo[4,5-b]pyridine-5-carboxylic acid] stands 8.77.
Regarding `O=C(O)c1ccc2nc(CN3CCC(c4cccc5nc(Cc6ccc(Cl)cc6F)oc45)CC3)n(C[C@@H]3CCO3)c2n1` [Compound 143a, (S)-2-((4-(2-(4-chloro-2-fluorobenzyl)benzo[d]oxazol-7-yl)piperidin-1-yl)methyl)-3-(oxetan-2-ylmethyl)-3H-imidazo[4,5-b]pyridine-5-carboxylic acid], the negative logarithm of the EC50 (pEC50) was 9.28.
As for `O=C(O)c1ccc2nc(CN3CCC(Oc4ccc(=O)n(Cc5ccc(Cl)cc5F)n4)CC3)n(C[C@@H]3CCO3)c2n1` [Compound 144a, 2-{[4-({1-[(4-chloro-2-fluorophenyl)methyl]-6-oxo-1,6-dihydropyridazin-3-yl}oxy)piperidin-1-yl]methyl}-3-{[(2S)-oxetan-2-yl]methyl}-3H-imidazo[4,5-b]pyridine-5-carboxylic acid], the negative-log EC50 (pEC50) is 8.32.
On the same count and under the same terms, to `O=C(O)c1ccc2nc(CN3CCC(Oc4cccc(Cc5ccc(C(F)(F)F)cc5)n4)CC3)n(C[C@@H]3CCO3)c2n1` [Compound 145a, 3-{[(2S)-oxetan-2-yl]methyl}-2-({4-[(6-{[4-(trifluoromethyl)phenyl]methyl}pyridin-2-yl)oxy]piperidin-1-yl}methyl)-3H-imidazo[4,5-b]pyridine-5-carboxylic acid] belongs 8.47; to `O=C(O)c1ccc2nc(CN3CCC(Oc4cccc(Cc5ccc(C6CC6)cc5)n4)CC3)n(C[C@@H]3CCO3)c2n1` [Compound 146a, 2-{[4-({6-[(4-cyclopropylphenyl)methyl]pyridin-2-yl}oxy)piperidin-1-yl]methyl}-3-{[(2S)-oxetan-2-yl]methyl}-3H-imidazo[4,5-b]pyridine-5-carboxylic acid], 9.21; to `O=C(O)c1ccc2nc(CN3CCC(Oc4cccc(CN5Cc6ccccc6C5=O)n4)CC3)n(C[C@@H]3CCO3)c2n1` [Compound 148a, 3-{[(2S)-oxetan-2-yl]methyl}-2-{[4-({6-[(1-oxo-2,3-dihydro-1H-isoindol-2-yl)methyl]pyridin-2-yl}oxy)piperidin-1-yl]methyl}-3H-imidazo[4,5-b]pyridine-5-carboxylic acid], 8.36.
As for `O=C(O)c1ccc2nc(CN3CCC(Oc4cccc(Cn5ccc(Cl)cc5=O)n4)CC3)n(C[C@@H]3CCO3)c2n1` [Compound 149a, 2-{[4-({6-[(4-chloro-2-oxo-1,2-dihydropyridin-1-yl)methyl]pyridin-2-yl}oxy)piperidin-1-yl]methyl}-3-{[(2S)-oxetan-2-yl]methyl}-3H-imidazo[4,5-b]pyridine-5-carboxylic acid], the negative logarithm of the EC50 (pEC50) is 8.25.
The same measure, in the same setting: to `O=C(O)c1ccc2nc(CN3CCC(Oc4ccc(F)c(Cc5ccc(Cl)cc5F)n4)CC3)n(C[C@@H]3CCO3)c2n1` [Compound 150a, (S)-2-((4-((6-(4-chloro-2-fluorobenzyl)-5-fluoropyridin-2-yl)oxy)piperidin-1-yl)methyl)-3-(oxetan-2-ylmethyl)-3H-imidazo[4,5-b]pyridine-5-carboxylic acid] belongs 7.17; to `O=C(O)c1ccc2nc(CN3CCC(Oc4nc(Cc5ccc(Cl)cc5F)ncc4F)CC3)n(C[C@@H]3CCO3)c2n1` [Compound 151a, (S)-2-((4-((2-(4-chloro-2-fluorobenzyl)-5-fluoropyrimidin-4-yl)oxy)piperidin-1-yl)methyl)-3-(oxetan-2-ylmethyl)-3H-imidazo[4,5-b]pyridine-5-carboxylic acid], 10.07; to `O=C(O)c1ccc2nc(CN3CCC(Oc4ccnc(Cc5ccc(Cl)cc5)n4)CC3)n(C[C@@H]3CCO3)c2n1` [Compound 152a, 2-{[4-({2-[(4-chlorophenyl)methyl]pyrimidin-4-yl}oxy)piperidin-1-yl]methyl}-3-{[(2S)-oxetan-2-yl]methyl}-3H-imidazo[4,5-b]pyridine-5-carboxylic acid], 10.42.
`O=C(O)c1ccc2nc(CN3CCC(Oc4cncc(Cc5ccc(Cl)cc5)n4)CC3)n(C[C@@H]3CCO3)c2n1` [Compound 153a, 2-{[4-({6-[(4-chlorophenyl)methyl]pyrazin-2-yl}oxy)piperidin-1-yl]methyl}-3-{[(2S)-oxetan-2-yl]methyl}-3H-imidazo[4,5-b]pyridine-5-carboxylic acid]: the pEC50 is 9.85 and the EC50 was 0.158 nM.
On to `Cc1cc(Cc2ccc(Cl)cc2)nc(OC2CCN(Cc3nc4ccc(C(=O)O)nc4n3C[C@@H]3CCO3)CC2)c1` [Compound 154a, 2-{[4-({6-[(4-chlorophenyl)methyl]-4-methylpyridin-2-yl}oxy)piperidin-1-yl]methyl}-3-{[(2S)-oxetan-2-yl]methyl}-3H-imidazo[4,5-b]pyridine-5-carboxylic acid], for which the negative-log EC50 (pEC50) is 7.62.
Regarding `O=C(O)c1ccc2nc(CN3CCC(Oc4cc(Cl)cc(Cc5ccc(Cl)cc5)n4)CC3)n(C[C@@H]3CCO3)c2n1` [Compound 155a, 2-{[4-({4-chloro-6-[(4-chlorophenyl)methyl]pyridin-2-yl}oxy)piperidin-1-yl]methyl}-3-{[(2S)-oxetan-2-yl]methyl}-3H-imidazo[4,5-b]pyridine-5-carboxylic acid], the negative-log EC50 (pEC50) is 8.42.
The same measure, in the same setting: under `O=C(O)c1ccc2nc(CN3CCC(Oc4cc(C(F)(F)F)cc(Cc5ccc(Cl)cc5)n4)CC3)n(C[C@@H]3CCO3)c2n1` [Compound 156a, 2-{[4-({6-[(4-chlorophenyl)methyl]-4-(trifluoromethyl)pyridin-2-yl}oxy)piperidin-1-yl]methyl}-3-{[(2S)-oxetan-2-yl]methyl}-3H-imidazo[4,5-b]pyridine-5-carboxylic acid] stands 7.40.

The values are drawn from patent US20230071840A1, “HETEROCYCLIC GLP-1 AGONISTS” (Gasherbrum Bio, Inc., priority 2020, published 2023).
